The source of these data is patent US20240174690A1, “ANNULATED 2-AMINO-3-CYANO THIOPHENES AND DERIVATIVES FOR THE TREATMENT OF CANCER” (BOEHRINGER INGELHEIM INTERNATIONAL GMBH, priority 2021, published 2024).

The test system of one series is NCI-H358 cells. Description: NCI-H358 CTG proliferation assay (120 h) (NSCLC, G12C). It counts as cell-based, human. As to conditions: Homo sapiens. The procedure: NCI-H358 CTG Proliferation Assay (120 h) (NSCLC, G12C)
NCI-H358 cells (ATCC No. CRL-5807) are dispensed into white bottom opaque 96 well plates (Perkin Elmer cat no. 5680) at a density of 2000 cells per well in 100 μL RPMI-1640 ATCC-Formulation (Gibco #A10491)+10% FCS (fetal calf serum) (assay 1) or into black 384-well plates, flat and clear bottom (Greiner, PNr. 781091) at a density of 200 cells per well in 60 μl RPMI-1640 ATCC-Formulation (Gibco #A10491)+10% FCS (fetal calf serum) (assay 2). […] Compounds (10 mM stock in DMSO) are added at logarithmic dose series using the HP Digital Dispenser D300 (Tecan) (assay 1) or the ECHO acoustic liquid handler system (Beckman Coulter) (assay 2), normalizing for added DMSO and including DMSO controls. For the TO time point measurement, untreated cells are analyzed at the time of compound addition. Plates are incubated for 120 h, and cell viability is measured using CellTiter-Glo luminescent cell viability reagent (Promega product code G7570). Viability (stated as percent of control) is defined as relative luminescence units RLU of each well divided by the RLU of cells in DMSO controls. IC50 values are determined from viability measurements by non-linear regression using a four parameter model.

The subject of the next series is AsPC-1 cells. Description: AsPC-1 CTG proliferation assay (120 h) (pancreatic cancer, G12D). In kind it is cell-based. Conditions: Homo sapiens, ASPC1. The procedure: AsPC-1 CTG Proliferation Assay (120 h) (Pancreatic Cancer, G12D)
The CTG assay is designed to measure quantitatively the proliferation of AsPC-1 cells (ATCC […]), using the CellTiter Glow Assay Kit (Promega G7571). Cells are grown in RPMI medium (ATCC) supplemented with Fetal Calf Serum (Life Technologies, Gibco BRL, Cat. No. 10270-106). On “day 0” 2000 AsPC-1 cells are seeded in 60 μL RPMI ATCC+10% FCS+Penstrep in a 384-well plate, flat and clear bottom (Greiner, PNr. 781091). Cells are then incubated in the plates at 37° C. in a CO2 incubator overnight. On day 1, compounds (10 mM stock in DMSO) are added with the ECHO acoustic liquid handler system (Beckman Coulter), including DMSO controls. Plates are incubated for 120 h, and cell viability is measured using CellTiter-Glo luminescent cell viability reagent (Promega product code G7570). Viability (stated as percent of control) is defined as relative luminescence units RLU of each well divided by the RLU of cells in DMSO controls. IC50 values are determined from viability measurements by non-linear regression using a four-parameter model.

In series [1] the test system is KRAS G12D-dependent Ba/F3 cells. Kind of series: Ba/F3 proliferation assay, KRAS G12D. It counts as cell-based. As to conditions: Mus musculus, BaF3, 72 h, AlamarBlue. The procedure: Plasmids containing KRASG12 mutants (i.e. […], G12C, G12V) are obtained from GeneScript. To generate KRASG12-dependent Ba/F3 models, Ba/F3 cells are transduced with retroviruses containing vectors that harbor KRASG12 isoforms. Platinum-E cells (Cell Biolabs) are used for retrovirus packaging. Retrovirus is added to Ba/F3 cells. To ensure infection, 4 μg/mL polybrene is added and cells are spinfected. […] Cells with an infection efficiency of 10% to 20% are further cultivated and puromycin selection with 1 μg/mL is initiated. As a control, parental Ba/F3 cells are used to show selection status. Selection is considered successful when parental Ba/F3 cells cultures died. To evaluate the transforming potential of KRASG12 mutations, the growth medium is no longer supplemented with IL-3. Ba/F3 cells harboring the empty vector are used as a control. Approximately ten days before conducting the experiments, puromycin is left out.
Compounds are added using an Access Labcyte Workstation with a Labcyte Echo 550 or 555 accoustic dispenser. All treatments are performed in technical duplicates. […] AlamarBlue™ (ThermoFisher), a viability stain, is added and fluorescence measured in the PerkinElmer Envision HTS Multilabel Reader. The raw data are imported into and analyzed with the Boehringer Ingelheim proprietary software MegaLab (curve fitting based on the program PRISM, GraphPad Inc.).

The next series relates to SAS cells. Description: SAS CTG proliferation assay (120 h) (HNSCC, wt amplified). In kind it is cell-based. The method, then:
SAS CTG Proliferation Assay (120 h) (HNSCC, Wt Amplified)
SAS cells (JCRB0260) are dispensed into 384-well plates, flat and clear bottom (Greiner, PNr. 781091) at a density of 300 cells per well in 60 μL DMEM:F12 (Gibco 31330-038)+10% Fetal Calf Serum (HyClone, PNr.: SH30084.03) and incubated at 37° C. in a CO2 incubator overnight. The next day, compounds (10 mM stock in DMSO) are added with the ECHO acoustic liquid handler system (Beckman Coulter), including DMSO controls. Plates are incubated for 120 h, and cell viability is measured using CellTiter-Glo luminescent cell viability reagent (Promega product code G7570). Viability (stated as percent of control) is defined as relative luminescence units RLU of each well divided by the RLU of cells in DMSO controls. IC50 values are determined from viability measurements by non-linear regression using a four-parameter model.

Series [2] is described as follows: Caco-2 assay (permeability PappAB, PappBA, efflux ratio). In kind it is in vitro ADME. Conditions: human, Caco-2, 10 μM test compound, pH 7.4; for Papp A→B at 90 min, 10 μM: apical to basolateral; for efflux ratio at 90 min, 10 μM: efflux ratio PappBA/PappAB, read-out: Caco ER. The source says:
The assay provides information on the potential of a compound to pass the cell membrane, on the extent of oral absorption as well as on whether the compound is actively transported by uptake and/or efflux transporters. Permeability measurements across polarized, confluent Caco-2 cell monolayers grown on permeable filter supports (Corning, catalog #3391) are used. […] The receiver and donor compartments contain 0.25% bovine serum albumine (BSA) in assay buffer. Passive diffusion and/or active transport of compounds across the monolayer is measured in both apical to basolateral (a-b) and basolateral to apical (b-a) direction. a-b permeability (PappAB) represents drug absorption from the intestine into the blood and b-a permeability (PappBA) drug secretion from the blood back into the intestine via both passive permeability as well as active transport mechanisms mediated by efflux and uptake transporters that are expressed on the Caco-2 cells. After a pre-incubation of 25-30 min at 37° C., at predefined time points (0, 30, 60 and 90 min), samples were taken from the receiver and donor compartment, respectively. Concentrations of test compounds in samples were measured by HPLC/MS/MS, samples from the donor compartment were diluted 1:50 (v:v) with assay buffer, samples from receiver compartment were measured without dilution.
Apparent permeabilities in a-b (PappAB) and b-a (PappBA) directions are calculated according to the formula:
[formula] • Vrec [mL]: buffer volume in receiver compartment • Cdon [μmol/mL]: concentration of test compound in donor compartment at t=0 • ΔCrec: difference between concentrations of test compound in receiver compartment at start and end of incubation time • Δt: Incubation time • Vrec·ΔCrec/Δt [μmol/min]: Amount of compound transferred to receiver compartment per time • A [cm^2]: filter surface
Caco-2 efflux ratios (ER) are calculated as the ratio of PappBA/PappAB.

[3] abbreviates: assay 2, CTG, read-out: H358 (assay 2) IC50.

Molecules are shown by their SMILES. Read-outs that look alike come from different tables or passages of the source. Bounds are passed on as bounds.

Regarding `COCc1cn(-c2cc(O[C@@H](C)[C@@H]3CCCN3C)nc(-c3noc4c3CCC[C@@]43CCCc4sc(N)c(C#N)c43)n2)nn1` [II-121], the concentration for half-maximal inhibition (IC50) came out at 268 nM with NCI-H358 cells (setting [3]), 3070 nM in the series with AsPC-1 cells, 77 nM in series [1] and 560 nM in the series on SAS cells. Besides, the apical-to-basolateral permeability (Papp A→B) at 90 min, 10 μM in series [2] turned out to be 6.3 ×10⁻⁶ cm/s. In addition, in series [2], the efflux ratio at 90 min, 10 μM is 3.7.
Turning to `C[C@H](Oc1cc(-c2cc[nH]n2)nc(-c2noc3c2CCC[C@@]32CCCc3sc(N)c(C#N)c32)n1)[C@@H]1CCCN1C` [II-71], the IC50 is 209 nM in the series with NCI-H358 cells (setting [3]), 1670 nM in the series on AsPC-1 cells, 41 nM in series [1] and 47 nM with SAS cells. In addition, the Papp A→B at 90 min, 10 μM in series [2] amounted to 0.5 ×10⁻⁶ cm/s. For the same compound, the efflux ratio at 90 min, 10 μM in series [2] was found to be 63.3.
For `C[C@H](Oc1cc(-c2ccn(C3COC3)n2)nc(-c2noc3c2CCC[C@@]32CCCc3sc(N)c(C#N)c32)n1)[C@@H]1CCCN1C` [II-109], the IC50 in the series on NCI-H358 cells (setting [3]) came to 78 nM; with AsPC-1 cells it was 3830 nM; in series [1] it was 80 nM; in the series with SAS cells, 20 nM. In series [2], the Papp A→B at 90 min, 10 μM came to 3.5 ×10⁻⁶ cm/s. For the same compound, the efflux ratio at 90 min, 10 μM in series [2] came out at 7.4.
On to `C[C@H](Oc1cc(-c2ccn(C3CC3)n2)nc(-c2noc3c2CCC[C@@]32CCCc3sc(N)c(C#N)c32)n1)[C@@H]1CCCN1C` [II-98], for which the half-maximal inhibitory concentration (IC50) is 242 nM in the series on NCI-H358 cells (setting [3]), 3340 nM with AsPC-1 cells, 69 nM in series [1] and 30 nM in the series on SAS cells. Moreover, the efflux ratio at 90 min, 10 μM in series [2] was determined as 1.5.
Turning to `C[C@H](Oc1cc(N2CCC[C@H](O)C2)nc(-c2noc3c2CCC[C@@]32CCCc3sc(N)c(C#N)c32)n1)[C@@H]1CCCN1C` [II-57], the IC50 in the series on NCI-H358 cells (setting [3]) was 286 nM; with AsPC-1 cells it was 1840 nM; in series [1], 40 nM; in the series on SAS cells it was 54 nM. The Papp A→B at 90 min, 10 μM in series [2] amounted to 0.7 ×10⁻⁶ cm/s. Also, the efflux ratio at 90 min, 10 μM in series [2] turned out to be 43.3.
Regarding `C[C@H](Oc1cc(-n2cnc3cccnc32)nc(-c2noc3c2CCC[C@@]32CCCc3sc(N)c(C#N)c32)n1)[C@@H]1CCCN1C` [II-65], the IC50 in the series with NCI-H358 cells (setting [3]) stood at 3220 nM; in the series with AsPC-1 cells it was 3560 nM; in series [1] it was 122 nM; in the series on SAS cells, 173 nM.
The corresponding values for `C[C@H](Oc1cc(-c2ccncc2)nc(-c2noc3c2CCC[C@@]32CCCc3sc(N)c(C#N)c32)n1)[C@@H]1CCCN1C` [II-78] are 170 nM, 2120 nM, 87 nM and 318 nM.
The corresponding values for `C[C@H](Oc1cc(-n2ccnc2Cl)nc(-c2noc3c2CCC[C@@]32CCCc3sc(N)c(C#N)c32)n1)[C@@H]1CCCN1C` [II-93] are 872 nM, 4640 nM, 43 nM and 366 nM.
For `C[C@H](Oc1cc(-c2cnn(C)c2)nc(-c2noc3c2CCC[C@@]32CCCc3sc(N)c(C#N)c32)n1)[C@@H]1CCCN1C` [II-74], in that order: 1680 nM, 3210 nM, 81 nM and 192 nM.
On to `C[C@H](Oc1cc(C2=CCOCC2)nc(-c2noc3c2CCC[C@@]32CCCc3sc(N)c(C#N)c32)n1)[C@@H]1CCCN1C` [II-67], for which the IC50 was 1040 nM in the series with NCI-H358 cells (setting [3]), 2800 nM in the series with AsPC-1 cells, 38 nM in series [1] and 8 nM in the series on SAS cells.
As for `C[C@H](Oc1cc(N2CCNC2=O)nc(-c2noc3c2CCC[C@@]32CCCc3sc(N)c(C#N)c32)n1)[C@@H]1CCCN1C` [II-64], the IC50 was 36 nM in the series on NCI-H358 cells (assay 1, CTG, read-out: H358 (assay 1) IC50); 1070 nM in the series with AsPC-1 cells; 11 nM in series [1]; 16 nM in the series on SAS cells.
Consider `C[C@H](Oc1cc(N2CCN3CCC3C2)nc(-c2onc3c2CCC[C@@]32CCCc3sc(N)c(C#N)c32)n1)[C@@H]1CCCN1C` (stereo partly shown) [I-9], for which the IC50 in the series on NCI-H358 cells (setting [3]) stood at 1310 nM; with AsPC-1 cells, 2850 nM; in series [1], 92 nM; in the series with SAS cells, 20200 nM.
Consider `C[C@H](Oc1cc(N2CCNC[C@@]23CCOC3)nc(-c2noc3c2CCC[C@@]32CCCc3sc(N)c(C#N)c32)n1)[C@@H]1CCCN1C` [II-51], for which the IC50 came out at 3360 nM in the series with NCI-H358 cells (setting [3]), 903 nM in the series with AsPC-1 cells, 37 nM in series [1] and 70 nM in the series on SAS cells.
Consider `C[C@H](Oc1cc(-n2cccc3cnnc2-3)nc(-c2noc3c2CCC[C@@]32CCCc3sc(N)c(C#N)c32)n1)[C@@H]1CCCN1C` [II-92], for which the IC50 in the series on NCI-H358 cells (setting [3]) came to 3400 nM; in the series on AsPC-1 cells, 3920 nM; in series [1], 120 nM; with SAS cells it was 275 nM.
For `C[C@H](Oc1cc(-c2ccn(-c3ccsc3)n2)nc(-c2noc3c2CCC[C@@]32CCCc3sc(N)c(C#N)c32)n1)[C@@H]1CCCN1C` [II-84], in that order: > 25000 nM, 3060 nM, 79 nM and 52 nM.
For `C[C@H](Oc1cc(N2CCc3cccnc32)nc(-c2noc3c2CCC[C@@]32CCCc3sc(N)c(C#N)c32)n1)[C@@H]1CCCN1C` [II-90], in that order: 3250 nM, 3810 nM, 397 nM and 4390 nM.
